Test results published in US6184370A, “Receptor-binding determinant from leukaemia inhibitory factor” (Amrad Corporation Limited, priority 1994, dated 2001).

Key:
[1] = test system: M1 cells; conditions: background statement; cited from earlier work
[2] = test system: M1 cells; assay: Serum dose inhibition of M1 colony differentiation by normal mouse serum (mLBP); assay type: cell-based, murine; conditions: up to 200 U/ml hLIF
Procedure: For serum dose inhibition assays, the specific activity of each LIF preparation was determined by titration in cultures of M1 cells. Aliquots of normal mouse serum (containing approximately 5 μg/ml mLBP) were then added in serial 2-fold dilutions to cultures of M1 cells that also contained a just maximal concentration (200 U) of mLIF (SEQ. ID. NO:1), hLIF (SEQ. ID. NO:2) or m-hLIF hybrid. Assays including mLIF and hLIF gave identical results when either crude mouse serum or a highly purified preparation of mLBP was used. Hybrids were assessed for mLIF or hLIF character from the dilution of serum required to block 50% of their M1 cell differentiation-inducing activity.
A 1:4 to 1:8 dilution of normal mouse serum (equivalent to ~0.5-1 μg/ml mLBP) is required to block 50% of the M1 differentiation-inducingactivity of up to 200 U/ml mLIF, whereas, due to the higher affinity of hLIF for mLBP, a 1:8192 dilution of serum (~0.6 ng/ml mLBP) is sufficient to block 50% of the M1 activity of up to 200 U/ml hLIF. This ability of mLBP to inhibit the differentiation-inducing activity of LIF in a species-specific manner was utilized as a second assay that distinguished hLIF from mLIF. […]

[3] = test system: murine M1 leukaemic colonies; assay: M1 differentiation assay (specific biological activity); assay type: cell-based
Procedure: The functional activity of the m-hLIF hybrids was assayed by their ability to induce differentiation in murine M1 leukaemic colonies. M1 differentiation assays were performed as described (Metcalf et al, 1988). The specific activity of each hybrid was expressed as the units of M1 differentiation-inducing activity per milligram of protein.
The protein concentration of each purified sample was determined by amino acid analysis, and the amount of biologically active protein in each sample was estimated by its ability to induce differentiation in mouse M1 myeloid leukaemic colonies. An internal standard of mLIF (10^4 U/ml) was used to normalise all M1 cell bioassays (50 U/ml of LIF is defined as the concentration of LIF required for half maximal stimulation).

[4] = test system: mLBP (soluble mLIF-R α-chain); assay: Competitive inhibition of [125I]hLIF binding to mLBP (hLIF-like activity score); design: species or system mouse; conditions: logarithmic scale, hLIF = 100%, mLIF = 0%; mean±SEM
Source text: Reference is made herein to the subject molecule having at least about 35% hLIF-like activity. More preferably, the molecule has at least about 50% hLIF-like activity and even more preferably at least about 70% hLIF-like activity. hLIF-like activity is defined in terms of the ability for a molecule to compete for ^125 I-hLIF binding to mLBP based on the equation: [formula]
wherein xm is the dose of unlabelled mLIF; xh is the dose of unlabelled hLIF; xc is the dose of the molecule (e.g. protein, polypeptide or peptide) required to give 50% inhibition of ^125 I-hLIF binding to mLBP.
Normal mouse serum was used as a source of mLBP. […] Bound and free radioactivity were separated by vacuum filtration of the supernatant and the ConA-Sepharose pellet was washed once with 200 μl cold PBS. Assay plates containing the cell pellet were then exposed to a phosphor screen (Molecular Dynamics, Calif., U.S.A.) for 16-24 hours and the results quantified using Imagequant version 3.0 software (Molecular Dynamics). […]

[5] = test system: mLBP (soluble mLIF-R α-chain); assay: Competitive inhibition of [125I]mLIF binding to mLBP; design: species or system mouse; conditions: in words
Procedure: Normal mouse serum was used as a source of mLBP. For competitive binding experiments, 50 μl aliquots of unlabelled LIF or a mouse-human LIF hybrid were added to 96-well filtration assay plates containing a 0.65 micron Durapore membrane (Millipore, Mass., U.S.A.) with 20 μl aliquots of a 1/10 to 1/20 dilution of normal mouse serum, 10 μl radiolabelled ligand and 25 μl Concanavalin-A Sepharose 4B (ConA-Sepharose, Pharmacia, Uppsala) (diluted 1:4 in 100 mM sodium acetate pH6.0 containing 1 mM MnCl2, 1 mM MgCl2 and 1 mM CaCl2; this and all subsequent buffers contained 0.02% w/v sodium azide and 0.02% v/v Tween 20) and incubated at room temperature overnight with agitation. Bound and free radioactivity were separated by vacuum filtration of the supernatant and the ConA-Sepharose pellet was washed once with 200 μl cold PBS. Assay plates containing the cell pellet were then exposed to a phosphor screen (Molecular Dynamics, Calif., U.S.A.) for 16-24 hours and the results quantified using Imagequant version 3.0 software (Molecular Dynamics).
The structural integrity of all m-hLIF chimeras was also verified by evaluating their ability to bind correctly to the mLIF-R α-chain.

Substance: hLIF: human leukaemia inhibitory factor, H1-180 (SEQ. ID. NO:2), recombinant from E. coli
- mLBP more potent inhibitor of hLIF than mLIF (inhibition of biological responses to LIF) [1]: approximately 1000 fold
- mLBP concentration equivalent to serum dilution blocking 50% of M1 activity [2]: ~ 0.6 ng/ml
- biological activity in a mouse cell bioassay, in words [3]: nearly equal biological activities
- specific biological activity (units of LIF activity per milligram of protein) ([3]; mouse M1 cells, 50 U/ml = half maximal stimulation): 1-3×10^8 U/mg
- hLIF-like activity (percentage human score) calculated from ID50 for inhibition of [125I]hLIF binding to mLBP [4]: 100%
- ability to compete for [125I]mLIF binding to mLBP [5]: approximately equal ability
